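Tested at 5 concentrations; 48 h exposure; 96-well plates; endpoints linearly interpolated, else capped at highest concentration. GI50 is the concentration that inhibits growth by half.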 The source made the active and inactive calls. Cut-off read from the data, not from the text of the source: active = GI50 up to about 1.1 µM and inactive = higher.
Tests used:
Assay in all cases: inhibition of tumour cell growth, NCI panel, 48 h
786-0 = test system: 786-0
A549 = test system: A549
ACHN = test system: ACHN
BT-549 = test system: BT-549
CAKI-1 = test system: CAKI-1
CCRF-CEM = test system: CCRF-CEM
COLO 205 = test system: COLO 205
DU-145 = test system: DU-145
EKVX = test system: EKVX
HCT-116 = test system: HCT-116
HCT-15 = test system: HCT-15
HL-60 = test system: HL-60
HOP-62 = test system: HOP-62
HT-29 = test system: HT-29
Hs-578T = test system: Hs-578T
IGROV-1 = test system: IGROV-1
K562 = test system: K562
KM12 = test system: KM12
LOX IMVI = test system: LOX IMVI
M14 = test system: M14
MCF7 = test system: MCF7
MDA-MB-231 = test system: MDA-MB-231
MDA-MB-435 = test system: MDA-MB-435
MDA-N = test system: MDA-N
MOLT-4 = test system: MOLT-4
NCI-H226 = test system: NCI-H226
NCI-H23 = test system: NCI-H23
NCI-H460 = test system: NCI-H460
NCI-H522 = test system: NCI-H522
NCI/ADR-RES = test system: NCI/ADR-RES
OVCAR-3 = test system: OVCAR-3
OVCAR-4 = test system: OVCAR-4
OVCAR-5 = test system: OVCAR-5
OVCAR-8 = test system: OVCAR-8
PC-3 = test system: PC-3
RPMI-8226 = test system: RPMI-8226
RXF 393 = test system: RXF 393
SF-268 = test system: SF-268
SF-295 = test system: SF-295
SF-539 = test system: SF-539
SK-MEL-28 = test system: SK-MEL-28
SK-MEL-2 = test system: SK-MEL-2
SK-MEL-5 = test system: SK-MEL-5
SK-OV-3 = test system: SK-OV-3
SN12C = test system: SN12C
SNB-19 = test system: SNB-19
SNB-75 = test system: SNB-75
SW-620 = test system: SW-620
T47D = test system: T47D
TK-10 = test system: TK-10
U-251 = test system: U-251
UACC-257 = test system: UACC-257
UACC-62 = test system: UACC-62
A498 = test system: A498
Malme-3M = test system: Malme-3M
UO-31 = test system: UO-31
HCC 2998 = test system: HCC 2998
SR = test system: SR

CCOP(=O)(/C=C\n1ccc(N)nc1=O)OCC
GI50 (786-0): > 100 µM (inactive)
GI50 (A549): > 100 µM (inactive)
GI50 (ACHN): > 100 µM (inactive)
GI50 (BT-549): > 100 µM (inactive)
GI50 (CAKI-1): > 100 µM (inactive)
GI50 (CCRF-CEM): > 100 µM (inactive)
GI50 (COLO 205): > 100 µM (inactive)
GI50 (DU-145): > 100 µM (inactive)
GI50 (EKVX): > 100 µM (inactive)
GI50 (HCT-116): > 100 µM (inactive)
GI50 (HCT-15): > 100 µM
GI50 (HL-60): > 100 µM (inactive)
GI50 (HOP-62): > 100 µM (inactive)
GI50 (HT-29): > 100 µM (inactive)
GI50 (Hs-578T): 0.349 µM (active)
GI50 (IGROV-1): > 100 µM (inactive)
GI50 (K562): > 100 µM (inactive)
GI50 (KM12): > 100 µM (inactive)
GI50 (LOX IMVI): > 100 µM (inactive)
GI50 (M14): > 100 µM (inactive)
GI50 (MCF7): > 100 µM (inactive)
GI50 (MDA-MB-231): > 100 µM (inactive)
GI50 (MDA-MB-435): > 100 µM (inactive)
GI50 (MDA-N): > 100 µM (inactive)
GI50 (MOLT-4): > 100 µM (inactive)
GI50 (NCI-H226): > 100 µM (inactive)
GI50 (NCI-H23): > 100 µM (inactive)
GI50 (NCI-H460): > 100 µM (inactive)
GI50 (NCI-H522): 47.4 µM (inactive)
GI50 (NCI/ADR-RES): > 100 µM (inactive)
GI50 (OVCAR-3): > 100 µM (inactive)
GI50 (OVCAR-4): > 100 µM (inactive)
GI50 (OVCAR-5): > 100 µM (inactive)
GI50 (OVCAR-8): > 100 µM (inactive)
GI50 (PC-3): > 100 µM (inactive)
GI50 (RPMI-8226): > 100 µM (inactive)
GI50 (RXF 393): > 100 µM (inactive)
GI50 (SF-268): > 100 µM (inactive)
GI50 (SF-295): > 100 µM (inactive)
GI50 (SF-539): > 100 µM (inactive)
GI50 (SK-MEL-28): > 100 µM (inactive)
GI50 (SK-MEL-2): > 100 µM (inactive)
GI50 (SK-MEL-5): > 100 µM (inactive)
GI50 (SK-OV-3): > 100 µM (inactive)
GI50 (SN12C): > 100 µM (inactive)
GI50 (SNB-19): > 100 µM (inactive)
GI50 (SNB-75): > 100 µM (inactive)
GI50 (SW-620): > 100 µM (inactive)
GI50 (T47D): > 100 µM (inactive)
GI50 (TK-10): > 100 µM (inactive)
GI50 (U-251): > 100 µM (inactive)
GI50 (UACC-257): > 100 µM (inactive)
GI50 (UACC-62): > 100 µM (inactive)

COCO[C@@H]1C[C@H]2C(=O)N(COC)c3ccccc3C(=O)N2C1
GI50 (786-0): > 100 µM (inactive)
GI50 (A498): > 100 µM (inactive)
GI50 (A549): > 100 µM (inactive)
GI50 (ACHN): > 100 µM (inactive)
GI50 (BT-549): > 100 µM (inactive)
GI50 (CAKI-1): > 100 µM (inactive)
GI50 (CCRF-CEM): > 100 µM (inactive)
GI50 (COLO 205): > 100 µM (inactive)
GI50 (DU-145): > 100 µM (inactive)
GI50 (EKVX): > 100 µM (inactive)
GI50 (HCT-116): > 100 µM (inactive)
GI50 (HCT-15): > 100 µM
GI50 (HL-60): > 100 µM (inactive)
GI50 (HOP-62): > 100 µM (inactive)
GI50 (HT-29): > 100 µM (inactive)
GI50 (Hs-578T): > 100 µM (inactive)
GI50 (IGROV-1): > 100 µM (inactive)
GI50 (KM12): > 100 µM (inactive)
GI50 (LOX IMVI): > 100 µM (inactive)
GI50 (M14): > 100 µM (inactive)
GI50 (MCF7): > 100 µM (inactive)
GI50 (MDA-MB-231): > 100 µM (inactive)
GI50 (MDA-MB-435): > 100 µM (inactive)
GI50 (MDA-N): > 100 µM (inactive)
GI50 (MOLT-4): > 100 µM (inactive)
GI50 (Malme-3M): > 100 µM (inactive)
GI50 (NCI-H226): > 100 µM (inactive)
GI50 (NCI-H23): > 100 µM (inactive)
GI50 (NCI-H522): > 100 µM (inactive)
GI50 (NCI/ADR-RES): > 100 µM (inactive)
GI50 (OVCAR-4): > 100 µM (inactive)
GI50 (OVCAR-5): > 100 µM (inactive)
GI50 (OVCAR-8): > 100 µM (inactive)
GI50 (PC-3): > 100 µM (inactive)
GI50 (RXF 393): > 100 µM (inactive)
GI50 (SF-268): > 100 µM (inactive)
GI50 (SF-295): > 100 µM (inactive)
GI50 (SF-539): > 100 µM (inactive)
GI50 (SK-MEL-28): > 100 µM (inactive)
GI50 (SK-MEL-2): > 100 µM (inactive)
GI50 (SK-MEL-5): > 100 µM (inactive)
GI50 (SK-OV-3): > 100 µM (inactive)
GI50 (SN12C): > 100 µM (inactive)
GI50 (SNB-19): > 100 µM (inactive)
GI50 (SNB-75): > 100 µM (inactive)
GI50 (SW-620): > 100 µM (inactive)
GI50 (T47D): > 100 µM (inactive)
GI50 (TK-10): > 100 µM (inactive)
GI50 (U-251): > 100 µM (inactive)
GI50 (UACC-257): > 100 µM (inactive)
GI50 (UACC-62): > 100 µM (inactive)
GI50 (UO-31): > 100 µM (inactive)

COC(=O)Cn1cnc2c(Cl)nc(Nc3ccccc3)nc21
GI50 (786-0): > 100 µM (inactive)
GI50 (A498): > 100 µM (inactive)
GI50 (A549): 79.6 µM (inactive)
GI50 (ACHN): > 100 µM (inactive)
GI50 (BT-549): 86.5 µM (inactive)
GI50 (CCRF-CEM): 27.2 µM (inactive)
GI50 (COLO 205): 59.6 µM (inactive)
GI50 (EKVX): 27 µM (inactive)
GI50 (HCC 2998): 6.52 µM (inactive)
GI50 (HCT-116): 35.5 µM (inactive)
GI50 (HCT-15): 21.4 µM
GI50 (HL-60): 22.4 µM (inactive)
GI50 (HOP-62): > 100 µM (inactive)
GI50 (HT-29): > 100 µM (inactive)
GI50 (Hs-578T): 20.9 µM (inactive)
GI50 (IGROV-1): 20.8 µM (inactive)
GI50 (K562): 10.6 µM (inactive)
GI50 (KM12): > 100 µM (inactive)
GI50 (LOX IMVI): 17.9 µM (inactive)
GI50 (M14): 29 µM (inactive)
GI50 (MCF7): 76.2 µM (inactive)
GI50 (MDA-MB-231): 38 µM (inactive)
GI50 (MDA-MB-435): 26.7 µM (inactive)
GI50 (MDA-N): 30.8 µM (inactive)
GI50 (MOLT-4): 26.5 µM (inactive)
GI50 (Malme-3M): 54.3 µM (inactive)
GI50 (NCI-H226): > 100 µM (inactive)
GI50 (NCI-H460): 32.8 µM (inactive)
GI50 (NCI/ADR-RES): 73.3 µM (inactive)
GI50 (OVCAR-3): 21.1 µM (inactive)
GI50 (OVCAR-4): 87.3 µM (inactive)
GI50 (OVCAR-8): 25.9 µM (inactive)
GI50 (PC-3): 20.7 µM (inactive)
GI50 (RPMI-8226): > 100 µM (inactive)
GI50 (RXF 393): 36.6 µM (inactive)
GI50 (SF-268): > 10 µM (inactive)
GI50 (SF-295): > 100 µM (inactive)
GI50 (SF-539): > 100 µM (inactive)
GI50 (SK-MEL-28): 27.4 µM (inactive)
GI50 (SK-MEL-2): 16.4 µM (inactive)
GI50 (SK-MEL-5): 39 µM (inactive)
GI50 (SK-OV-3): > 100 µM (inactive)
GI50 (SN12C): 28.8 µM (inactive)
GI50 (SNB-19): 67.9 µM (inactive)
GI50 (SNB-75): > 100 µM (inactive)
GI50 (SR): 40.1 µM (inactive)
GI50 (SW-620): 65 µM (inactive)
GI50 (T47D): > 100 µM (inactive)
GI50 (TK-10): > 100 µM (inactive)
GI50 (U-251): 66.7 µM (inactive)
GI50 (UACC-257): 68.7 µM (inactive)
GI50 (UACC-62): 22.6 µM (inactive)

Source: ChEMBL document CHEMBL1201862, “PubChem BioAssay data set” (2004)
